Measurements: patent US11279708B2, “Amidino- and amino-rocaglates as novel translation inhibitors and anticancer agents” (priority 2019, dated 2022)

Experiments:
NIH/3T3 cells = experiment: Sulforhodamine B (SRB) cytotoxicity assay; format: cell-based
Method: In cellula activity of rocaglates. All compounds in the rocaglate collection were assessed for cytotoxic activity towards NIH/3T3 cells as well as the rocaglate-resistant line, eIF4A^em1JP, which harbors an F163L mutation in eIF4A1. This mutation was originally identified following selection for RocA-resistant yeast mutants and F163 was subsequently shown to be critical for stacking with ring C of RocA (2) (FIG. 4). Although eIF4A2 is also a target of rocaglates, eIF4A1 F163L is sufficient to confer resistance to rocaglate-induced translation inhibition and cytotoxicity, likely due to eIF4A1 being the more abundant isoform in NIH/3T3 cells (250-fold higher). […] Lastly, although effective at inhibiting cap-dependent translation in vitro, WGD-57-591 (no activity @ 40 nM) and WGD-57-590 (12% growth inhibition @ 40 nM) performed poorly in this assay.
Sulforhodamine B (SRB) assay. NIH/3T3 cells were seeded at a density of 1000 cells/well in a 96 well format and incubated in presence of each 40 nM compound. After 4 days of culture, cells were washed with PBS, fixed with 50% trichloroacetic (TCA) acid for 1 hour, and then stained with 0.5% sulforhodamine B in 1% acetic acid for 15 min. Plates were then washed 5 times with 1% acetic acid, dried, and the stained wells were resuspended with 10 mM Tris (pH 9) prior to measuring the absorbance at 510 nm using (Spectramax M5, Molecular Devices)
FIGS. 26A-26B. In cellula activity of rocaglates. 26A. Cytotoxicity of rocaglates towards NIH/3T3 (grey circle) and the NIH/3T3 rocaglate-resistant line, eIF4A^em1JP(redtriangle). Cells were exposed to 40 nM compound for 4 days and viability was measured using the SRB assay. n=3±SD. 26B. Rocaglates show different sequence preferences for inhibiting cap-dependent translation in cellula. HEK 293 cells were transfected with 0.5 μg of in vitro synthesized capped (AG)10-FF/HCV/Ren or (UC)10-FF/HCV/Ren mRNA and 1h later exposed to the indicated concentrations of compounds for an additional 6 h, at which time extracts were prepared and luciferase activity measured. n=3 SD.

eIF4A1:poly r(AG)8 RNA = target: T1, eIF4A1:poly r(AG)8 RNA (Homo sapiens, UniProt P60842); experiment: fluorescence polarization (FP) assay, eIF4A1 binding to FAM-labelled RNA; conditions: 500 nM eIF4A1, 10 nM FAM-labelled RNA, screen at 10 μM compound
T1 construct: His6 (N); made in house; host or cells: E. coli BL21 (DE3)
T1 sequence (P60842 whole entry, species assumed): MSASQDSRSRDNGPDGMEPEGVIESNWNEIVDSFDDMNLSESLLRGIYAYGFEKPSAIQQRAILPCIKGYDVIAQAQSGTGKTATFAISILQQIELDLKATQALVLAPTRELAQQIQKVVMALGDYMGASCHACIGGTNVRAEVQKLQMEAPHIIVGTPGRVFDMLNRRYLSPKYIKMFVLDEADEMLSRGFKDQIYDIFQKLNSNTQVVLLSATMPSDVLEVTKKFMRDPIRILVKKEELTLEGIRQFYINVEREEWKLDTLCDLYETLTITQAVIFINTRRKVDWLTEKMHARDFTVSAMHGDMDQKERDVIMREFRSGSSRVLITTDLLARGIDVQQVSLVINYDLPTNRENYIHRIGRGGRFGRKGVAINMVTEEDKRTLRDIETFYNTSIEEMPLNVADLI
From the text: (§1) Rocaglates similarly enhance RNA binding of eIF4A1 and eIF4A2. In order to rapidly evaluate the ability of rocaglates to stimulate binding of eIF4A to RNA, a fluorescence polarization (FP) assay using a FAM (fluorescein amidite)-labelled RNA probe (FIG. 18A) was used. […] Due to the high degree of shared amino acid identity between the two paralogs, their apparent similarity with respect to RNA binding activity and response to CR-1-31-B (23), and the fact that eIF4A1 is essential but eIF4A2 is not, eIF4A1 was used in the majority of our subsequent experiments.
(§2) Fluorescence Polarization (FP) Assays. Unless otherwise specified, eIF4A (500 nM) was incubated with 10 nM FAM-labelled RNA for 30 min in FP buffer (14.4 mM HEPES-NaOH (pH 8), 108 mM NaCl, 1 mM MgCl2, 14.4% glycerol, 0.1% DMSO, 2 mM DTT, 1 mM AMPPNP) at room temperature in black low volume 384 well plates (Corning 3820). FP readings were performed on a Pherastar FS microplate reader (BMG Labtech).
FIGS. 19A-19C. Rocaglate activity profiling. 19A. Assessing eIF4A1:poly r(AG)8 (SEQ ID NO: 2) RNA binding by FP in the presence of 10 μM rocaglate. Values are expressed relative to vehicle controls and data is rank ordered. n=3±SD. 19B. The change in polarization obtained with eIF4A1:poly r(AG)8 (SEQ ID NO: 2) and eIF4A2:poly r(AG)8 (SEQ ID NO: 2) RNA. Pearson r=0.814; p<0.0001. 19C. Inhibition of cap-dependent translation by rocaglates was measured using the indicated mRNA bicistronic reporter (4 ng/ul) in Krebs-2 extracts at a final compound concentration of 2 μM. n=3±SD.
FIG. 21. Assessing stimulation of eIF4A1:RNA binding by rocaglates and pateamine. FAM-labelled RNA was incubated in the presence of 500 nM eIF4A1 and the indicated concentrations of compound for 30 min, after which time FP measurements were taken. Limitations in WGD-57-591 availability prevented us from extending the titrations to 100 μM. The change in FP obtained relative to vehicle controls is presented. n=3±SD. FP results of competition assays in which preformed eIF4A1:rocaglate:FAM-poly r(AG)10 complexes were incubated in the presence of poly r(AG)10 (SEQ ID NO: 39) and dissociation measured as a function of time. n=3±SD.

eIF4A2:poly r(AG)8 RNA = target: T2, eIF4A2:poly r(AG)8 RNA (Homo sapiens, UniProt Q14240); experiment: fluorescence polarization (FP) assay, eIF4A2 binding to FAM-labelled RNA; conditions: 10 μM CR-1-31-B
T2 construct: His6 (N); made in house; host or cells: E. coli BL21 (DE3)
T2 sequence (Q14240 whole entry, species assumed): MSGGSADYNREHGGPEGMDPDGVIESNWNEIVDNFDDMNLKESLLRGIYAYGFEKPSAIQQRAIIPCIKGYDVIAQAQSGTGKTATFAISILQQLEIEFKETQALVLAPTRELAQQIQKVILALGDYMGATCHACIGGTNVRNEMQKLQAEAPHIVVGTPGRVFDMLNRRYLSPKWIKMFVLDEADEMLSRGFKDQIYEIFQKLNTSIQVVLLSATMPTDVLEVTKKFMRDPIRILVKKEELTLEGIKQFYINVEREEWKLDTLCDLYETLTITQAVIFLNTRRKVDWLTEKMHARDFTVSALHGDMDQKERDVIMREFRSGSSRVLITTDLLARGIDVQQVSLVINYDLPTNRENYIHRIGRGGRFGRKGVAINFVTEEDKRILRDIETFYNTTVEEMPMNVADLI
From the text: as §1, §2
FIGS. 17A-17F. Assessment of eIF4A1 and eIF4A2 RNA binding specificity. 17A. Chemical structure of the most commonly used rocaglates in biological studies 17B. Coomassie blue staining of SDS-PAGE showing eIF4A1 and eIF4A2 preparations used herein. […]

COC(=O)[C@@H]1[C@@H](c2ccccc2)[C@]2(c3ccc(OC)cc3)Oc3cc(OC)cc(OC)c3[C@@]23N=C(C)N[C@@]13O [9b]
rank among the top 15 cytotoxic rocaglates (NIH/3T3 cells; 40 nM, 4 days): 10th

CONC(=O)[C@H]1[C@@H](O)[C@@]2(O)c3c(OC)cc(OC)cc3O[C@@]2(c2ccc(OC)cc2)[C@@H]1c1ccccc1 [CR-1-31-B]
stimulation of eIF4A1:RNA binding (in words) (eIF4A1:poly r(AG)8 RNA): preferentially stimulated binding of eIF4A1 to RNA harboring polypurine bases
stimulation of eIF4A2:RNA binding (in words) (eIF4A2:poly r(AG)8 RNA): equally stimulates binding of both eIF4A1 and eIF4A2
IC50 (NIH/3T3 cells; 4 day exposure, read-out: IC50, cytotoxicity towards NIH/3T3 cells): ~8.5 nM

COc1ccc([C@@]23Oc4cc(OC)cc(OC)c4[C@]2(O)[C@H](O)[C@H](C(=O)N(C)C)[C@H]3c2ccccc2)cc1 [RocA, rocaglamide A]
stimulation of eIF4A1:RNA binding (in words) (eIF4A1:poly r(AG)8 RNA): activity similar to CR-1-31-B

COC(=O)[C@H]1[C@@H](O)[C@@]2(O)c3c(OC)cc(O[C@@H]4O[C@@H]([C@H](O)CO)CO[C@H]4OC)cc3O[C@@]2(c2ccc(OC)cc2)[C@@H]1c1ccccc1 [silvestrol]
stimulation of eIF4A1:RNA binding (in words) (eIF4A1:poly r(AG)8 RNA): less potent across the concentrations tested
stimulation of eIF4A1:RNA binding (in words) (eIF4A1:poly r(AG)8 RNA; listed as Silvestrol): relatively weak activity
